# Results from ChEMBL document CHEMBL1255475, “Mutant prevention concentrations of four carbapenems against gram-negative rods” (2010).
# Legend:
# Pseudomonas aeruginosa [1] = assay: Ratio of mutant prevention concentration to minimum Inhibitory concentration for Pseudomonas aeruginosa P326; assay type: functional
# Acinetobacter baumannii [2] = assay: Ratio of mutant prevention concentration to minimum Inhibitory concentration for Acinetobacter baumannii A912; assay type: functional
# Pseudomonas aeruginosa [3] = assay: Ratio of mutant prevention concentration to minimum Inhibitory concentration for Pseudomonas aeruginosa P365; assay type: functional
# Acinetobacter baumannii [4] = assay: Ratio of mutant prevention concentration to minimum Inhibitory concentration for Acinetobacter baumannii A898; assay type: functional
# Acinetobacter baumannii [5] = assay: Ratio of mutant prevention concentration to minimum Inhibitory concentration for Acinetobacter baumannii A865; assay type: functional
# Pseudomonas aeruginosa [6] = assay: Ratio of mutant prevention concentration to minimum Inhibitory concentration for Pseudomonas aeruginosa P327; assay type: functional
# Pseudomonas aeruginosa [7] = assay: Ratio of mutant prevention concentration to minimum Inhibitory concentration for Pseudomonas aeruginosa P376; assay type: functional
# Acinetobacter baumannii [8] = assay: Ratio of mutant prevention concentration to minimum Inhibitory concentration for Acinetobacter baumannii A891; assay type: functional
# Pseudomonas aeruginosa [9] = assay: Ratio of mutant prevention concentration to minimum Inhibitory concentration for Pseudomonas aeruginosa P338; assay type: functional
# Pseudomonas aeruginosa [10] = assay: Ratio of mutant prevention concentration to minimum Inhibitory concentration for Pseudomonas aeruginosa P353; assay type: functional
# Acinetobacter baumannii [11] = assay: Ratio of mutant prevention concentration to minimum Inhibitory concentration for Acinetobacter baumannii A928; assay type: functional
# Acinetobacter baumannii [12] = assay: Ratio of mutant prevention concentration to minimum Inhibitory concentration for Acinetobacter baumannii A864; assay type: functional
# Acinetobacter baumannii [13] = assay: Ratio of mutant prevention concentration to minimum Inhibitory concentration for Acinetobacter baumannii A850; assay type: functional
# Pseudomonas aeruginosa [14] = assay: Ratio of mutant prevention concentration to minimum Inhibitory concentration for Pseudomonas aeruginosa P334; assay type: functional
# Acinetobacter baumannii [15] = assay: Ratio of mutant prevention concentration to minimum Inhibitory concentration for Acinetobacter baumannii A849; assay type: functional
# Pseudomonas aeruginosa [16] = assay: Ratio of mutant prevention concentration to minimum Inhibitory concentration for Pseudomonas aeruginosa P335; assay type: functional
# Acinetobacter baumannii [17] = assay: Ratio of mutant prevention concentration to minimum Inhibitory concentration for Acinetobacter baumannii A903; assay type: functional
# Pseudomonas aeruginosa [18] = assay: Ratio of mutant prevention concentration to minimum Inhibitory concentration for Pseudomonas aeruginosa P332; assay type: functional
# Acinetobacter baumannii [19] = assay: Ratio of mutant prevention concentration to minimum Inhibitory concentration for Acinetobacter baumannii A910; assay type: functional
# Acinetobacter baumannii [20] = assay: Ratio of mutant prevention concentration to minimum Inhibitory concentration for Acinetobacter baumannii A851; assay type: functional
# Acinetobacter baumannii [21] = assay: Ratio of mutant prevention concentration to minimum Inhibitory concentration for Acinetobacter baumannii A908; assay type: functional
# Acinetobacter baumannii [22] = assay: Ratio of mutant prevention concentration to minimum Inhibitory concentration for Acinetobacter baumannii A867; assay type: functional
# Pseudomonas aeruginosa [23] = assay: Ratio of mutant prevention concentration to minimum Inhibitory concentration for Pseudomonas aeruginosa P370; assay type: functional
# Pseudomonas aeruginosa [24] = assay: Ratio of mutant prevention concentration to minimum Inhibitory concentration for Pseudomonas aeruginosa P320; assay type: functional
# Pseudomonas aeruginosa [25] = assay: Antibacterial activity against Pseudomonas aeruginosa P369 after 24 hrs by agar dilution method; settings: P369, 24 h
# Pseudomonas aeruginosa [26] = assay: Antibacterial activity against Pseudomonas aeruginosa P337 after 24 hrs by agar dilution method; settings: P337, 24 h
# Pseudomonas aeruginosa [27] = assay: Antibacterial activity against Pseudomonas aeruginosa P356 after 24 hrs by agar dilution method; settings: P356, 24 h
# Acinetobacter baumannii [28] = assay: Antibacterial activity against Acinetobacter baumannii A896 after 24 hrs by agar dilution method; assay type: functional; settings: A896, 24 h
# Acinetobacter baumannii [29] = assay: Antibacterial activity against Acinetobacter baumannii A894 after 24 hrs by agar dilution method; assay type: functional; settings: A894, 24 h
# Klebsiella pneumoniae [30] = assay: Antibacterial activity against beta-lactamase-positive ESBL-negative Klebsiella pneumoniae E473 after 24 hrs by agar dilution method; assay type: functional; settings: E473, 24 h
# Acinetobacter baumannii [31] = assay: Antibacterial activity against Acinetobacter baumannii A931 after 24 hrs by agar dilution method; assay type: functional; settings: A931, 24 h
# Acinetobacter baumannii [32] = assay: Antibacterial activity against Acinetobacter baumannii A911 after 24 hrs by agar dilution method; assay type: functional; settings: A911, 24 h
# Escherichia coli [33] = assay: Antibacterial activity against beta-lactamase-positive ESBL-positive Escherichia coli E460 after 24 hrs by agar dilution method; settings: E460, 24 h
# Klebsiella pneumoniae [34] = assay: Antibacterial activity against beta-lactamase-negative Klebsiella pneumoniae E418 after 24 hrs by agar dilution method; assay type: functional; settings: E418, 24 h
# Klebsiella pneumoniae [35] = assay: Antibacterial activity against beta-lactamase-positive ESBL-negative Klebsiella pneumoniae E511 after 24 hrs by agar dilution method; assay type: functional; settings: E511, 24 h
# Klebsiella pneumoniae [36] = assay: Antibacterial activity against beta-lactamase-negative Klebsiella pneumoniae E357 after 24 hrs by agar dilution method; assay type: functional; settings: E357, 24 h
# Acinetobacter baumannii [37] = assay: Antibacterial activity against Acinetobacter baumannii A903 after 24 hrs by agar dilution method; assay type: functional; settings: A903, 24 h
# Acinetobacter baumannii [38] = assay: Antibacterial activity against Acinetobacter baumannii A849 after 24 hrs by agar dilution method; assay type: functional; settings: A849, 24 h
# Escherichia coli [39] = assay: Antibacterial activity against beta-lactamase-positive ESBL-positive Escherichia coli E446 after 24 hrs by agar dilution method; settings: E446, 24 h
# Acinetobacter baumannii [40] = assay: Antibacterial activity against Acinetobacter baumannii A851 after 24 hrs by agar dilution method; assay type: functional; settings: A851, 24 h
# Acinetobacter baumannii [41] = assay: Antibacterial activity against Acinetobacter baumannii A864 after 24 hrs by agar dilution method; assay type: functional; settings: A864, 24 h
# Pseudomonas aeruginosa [42] = assay: Antibacterial activity against Pseudomonas aeruginosa P373 after 24 hrs by agar dilution method; settings: P373, 24 h
# Klebsiella pneumoniae [43] = assay: Antibacterial activity against beta-lactamase-positive ESBL-negative Klebsiella pneumoniae E507 after 24 hrs by agar dilution method; assay type: functional; settings: E507, 24 h
# Pseudomonas aeruginosa [44] = assay: Antibacterial activity against Pseudomonas aeruginosa P338 after 24 hrs by agar dilution method; settings: P338, 24 h
# Klebsiella pneumoniae [45] = assay: Antibacterial activity against beta-lactamase-positive ESBL-positive Klebsiella pneumoniae E457 after 24 hrs by agar dilution method; assay type: functional; settings: E457, 24 h
# Klebsiella pneumoniae [46] = assay: Antibacterial activity against beta-lactamase-positive ESBL-negative Klebsiella pneumoniae E481 after 24 hrs by agar dilution method; assay type: functional; settings: E481, 24 h
# Escherichia coli [47] = assay: Antibacterial activity against beta-lactamase-negative Escherichia coli E344 after 24 hrs by agar dilution method; settings: E344, 24 h
# Acinetobacter baumannii [48] = assay: Antibacterial activity against Acinetobacter baumannii A848 after 24 hrs by agar dilution method; assay type: functional; settings: A848, 24 h
# Pseudomonas aeruginosa [49] = assay: Antibacterial activity against Pseudomonas aeruginosa P353 after 24 hrs by agar dilution method; assay type: functional; settings: P353, 24 h
# Klebsiella pneumoniae [50] = assay: Antibacterial activity against beta-lactamase-positive ESBL-negative Klebsiella pneumoniae E480 after 24 hrs by agar dilution method; assay type: functional; settings: E480, 24 h
# Escherichia coli [51] = assay: Antibacterial activity against beta-lactamase-positive ESBL-positive Escherichia coli E451 after 24 hrs by agar dilution method; settings: E451, 24 h
# Acinetobacter baumannii [52] = assay: Antibacterial activity against Acinetobacter baumannii A885 after 24 hrs by agar dilution method; assay type: functional; settings: A885, 24 h
# Pseudomonas aeruginosa [53] = assay: Antibacterial activity against Pseudomonas aeruginosa P349 after 24 hrs by agar dilution method; settings: P349, 24 h
# Escherichia coli [54] = assay: Antibacterial activity against beta-lactamase-positive ESBL-positive Escherichia coli E452 after 24 hrs by agar dilution method; settings: E452, 24 h
# Escherichia coli [55] = assay: Antibacterial activity against beta-lactamase-negative Escherichia coli E409 after 24 hrs by agar dilution method; settings: E409, 24 h
smiles,measurement,setting,value
C[C@@H](O)[C@H]1C(=O)N2C(C(=O)O)=C(S[C@@H]3CN[C@H](CNS(N)(=O)=O)C3)[C@H](C)[C@H]12 [DORIPENEM],Ratio,Pseudomonas aeruginosa [1],4
same,Ratio,Acinetobacter baumannii [2],2
same,Ratio,Pseudomonas aeruginosa [3],16
same,Ratio,Acinetobacter baumannii [4],2
same,Ratio,Acinetobacter baumannii [5],8
same,Ratio,Pseudomonas aeruginosa [6],16
same,Ratio,Pseudomonas aeruginosa [7],>16
same,Ratio,Acinetobacter baumannii [8],4
same,Ratio,Pseudomonas aeruginosa [9],16
same,Ratio,Pseudomonas aeruginosa [10],4
same,Ratio,Acinetobacter baumannii [11],2
same,Ratio,Acinetobacter baumannii [12],8
same,Ratio,Acinetobacter baumannii [13],2
same,Ratio,Pseudomonas aeruginosa [14],>16
same,Ratio,Acinetobacter baumannii [15],4
same,Ratio,Pseudomonas aeruginosa [16],8
same,Ratio,Acinetobacter baumannii [17],4
same,Ratio,Pseudomonas aeruginosa [18],>16
same,Ratio,Acinetobacter baumannii [19],2
same,Ratio,Acinetobacter baumannii [20],4
same,Ratio,Acinetobacter baumannii [21],2
same,Ratio,Acinetobacter baumannii [22],16
same,Ratio,Pseudomonas aeruginosa [23],16
same,Ratio,Pseudomonas aeruginosa [24],>8
C[C@@H](O)[C@H]1C(=O)N2C(C(=O)O)=C(SCCNC=N)C[C@H]12 [IMIPENEM ANHYDROUS],MIC,Pseudomonas aeruginosa [25],2 µg/mL
same,MIC,Pseudomonas aeruginosa [26],2 µg/mL
same,MIC,Pseudomonas aeruginosa [27],2 µg/mL
same,MIC,Acinetobacter baumannii [28],0.25 µg/mL
same,MIC,Acinetobacter baumannii [29],0.5 µg/mL
same,MIC,Klebsiella pneumoniae [30],4 µg/mL
same,MIC,Acinetobacter baumannii [31],0.5 µg/mL
same,MIC,Acinetobacter baumannii [32],2 µg/mL
same,MIC,Escherichia coli [33],0.25 µg/mL
same,MIC,Klebsiella pneumoniae [34],2 µg/mL
same,MIC,Klebsiella pneumoniae [35],2 µg/mL
same,MIC,Klebsiella pneumoniae [36],0.25 µg/mL
same,MIC,Acinetobacter baumannii [37],0.5 µg/mL
same,MIC,Acinetobacter baumannii [38],4 µg/mL
same,MIC,Escherichia coli [39],0.25 µg/mL
same,MIC,Acinetobacter baumannii [40],2 µg/mL
same,MIC,Acinetobacter baumannii [41],8 µg/mL
same,MIC,Pseudomonas aeruginosa [42],2 µg/mL
same,MIC,Klebsiella pneumoniae [43],2 µg/mL
same,MIC,Pseudomonas aeruginosa [44],2 µg/mL
same,MIC,Klebsiella pneumoniae [45],0.25 µg/mL
same,MIC,Klebsiella pneumoniae [46],4 µg/mL
same,MIC,Escherichia coli [47],0.125 µg/mL
same,MIC,Acinetobacter baumannii [48],4 µg/mL
same,MIC,Pseudomonas aeruginosa [49],8 µg/mL
same,MIC,Klebsiella pneumoniae [50],2 µg/mL
same,MIC,Escherichia coli [51],0.25 µg/mL
same,MIC,Acinetobacter baumannii [52],2 µg/mL
same,MIC,Pseudomonas aeruginosa [53],2 µg/mL
same,MIC,Escherichia coli [54],0.125 µg/mL
same,MIC,Escherichia coli [55],0.25 µg/mL
